Measurements: PubChem BioAssay AID434951 (Broad Institute, 2010)
Active and inactive are the calls of the source.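 The calls were made as follows: active = a fitted half-maximal concentration EC50 for the rise in nuclear signal no higher than ten times the top dose tested; inconclusive = flat fit with activity between 30% and 70%, or unusable fit; inactive = EC50 beyond ten times the top dose.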

biological target: Hypoxia-inducible factor 1-alpha (Homo sapiens) (UniProt Q16665); experiment: HIF pathway activation, GFP-HIF1alpha translocation – imaging, fluorescence, U2OS GFP-HIF1alpha, confirmation (AID 434951); settings: U2OS GFP-HIF1alpha nuclear intensity, high-content imaging
Sequence (Q16665 whole entry, looked up): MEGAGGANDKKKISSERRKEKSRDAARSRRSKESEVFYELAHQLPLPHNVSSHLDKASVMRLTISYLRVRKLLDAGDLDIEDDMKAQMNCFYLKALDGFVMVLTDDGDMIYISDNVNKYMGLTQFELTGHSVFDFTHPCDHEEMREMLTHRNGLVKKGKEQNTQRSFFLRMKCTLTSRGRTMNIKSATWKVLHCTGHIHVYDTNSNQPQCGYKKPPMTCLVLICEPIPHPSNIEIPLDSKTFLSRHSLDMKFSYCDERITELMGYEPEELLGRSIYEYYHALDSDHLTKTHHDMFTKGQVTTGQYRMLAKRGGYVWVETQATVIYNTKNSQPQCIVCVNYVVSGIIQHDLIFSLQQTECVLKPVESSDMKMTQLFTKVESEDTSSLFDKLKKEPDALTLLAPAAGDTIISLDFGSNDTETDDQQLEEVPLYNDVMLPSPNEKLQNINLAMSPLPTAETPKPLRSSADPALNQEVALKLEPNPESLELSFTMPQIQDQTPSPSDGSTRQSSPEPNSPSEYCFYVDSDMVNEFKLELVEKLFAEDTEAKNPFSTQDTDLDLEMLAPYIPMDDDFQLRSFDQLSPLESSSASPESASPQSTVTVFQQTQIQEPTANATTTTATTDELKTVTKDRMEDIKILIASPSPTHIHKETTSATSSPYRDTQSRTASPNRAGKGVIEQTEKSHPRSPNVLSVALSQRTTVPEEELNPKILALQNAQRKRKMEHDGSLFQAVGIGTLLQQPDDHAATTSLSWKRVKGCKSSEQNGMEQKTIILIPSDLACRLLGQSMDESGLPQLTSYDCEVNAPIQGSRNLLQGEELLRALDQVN

| Structure (SMILES) | EC50 |
| --- | --- |
| S=C(Nc1ccc2cn[nH]c2c1)Nc1ccccc1Cl | > 35 µM (inactive) |
| Cc1cc(C)n(-c2nc3ccccc3c(=O)n2OCC#N)n1 | 11.4 µM |
| CC(=O)NCCC(=O)Nc1cc(S(=O)(=O)N2CCOCC2)ccc1N1CCOCC1 | > 35 µM (inactive) |
| CC(=O)Nc1ccc(S(=O)(=O)/N=C2\C(=O)c3ccccc3C([O-])=C2n2cc[n+](-c3ccccn3)c2)cc1 | > 35 µM (inactive) |
| Cc1c(C(=O)N2CCCCC2)c(S(=O)(=O)NCCc2ccc(Cl)cc2)c(C)n1C | > 35 µM (inactive) |
| Clc1ccc(CSc2ccc(-c3ccccn3)nn2)cc1 | 9.44 µM |
| CCc1nc(N2CCN(C(=O)c3ccco3)CC2)c2c3c(sc2n1)CCCC3 | > 35 µM (inactive) |
| CCCCN(C(=O)c1c(C)[nH]c(C(=O)OCC)c1C)c1ccccc1 | > 35 µM (inactive) |
| Cc1cc(OCC(=O)Nc2ccc3c(c2)OCCO3)cc(C)c1Cl | > 35 µM (inactive) |
| O=c1c2ccccc2nc(COc2ccccc2)n1/N=C/c1ccc(O)cc1O | 9.68 µM |
| O=C(N/N=C/c1cc2cc3c(cc2nc1Cl)OCO3)c1ccncc1 | > 35 µM (inactive) |
| Cc1ncc(CO)c(/C=N/Nc2ccc(C(F)(F)F)cn2)c1O | 17.8 µM |
| CCN(CC)c1ccc(NC(=O)CSc2nc3nc(C)cc(C)c3c(=O)[nH]2)cc1 | > 35 µM (inactive) |
| CCC(=O)N1CCc2cc(S(=O)(=O)NCCC(=O)N3CCN(c4cccc(OC)c4)CC3)ccc21 | > 35 µM (inactive) |
| CCC(=O)NC(c1ccc(OC)cc1)c1cc(Cl)c2cccnc2c1O (configuration not stated) | 11.8 µM |
| Cc1ccc(NC(=O)Nc2cccc(F)c2)nc1 | > 35 µM (inactive) |
| Cc1c(Cl)cccc1NC(=S)N/N=C/c1ccccc1Cl | 14.8 µM |
| COc1ccc(-n2c(C)cc(C(=O)CCl)c2C)cc1 | 12.4 µM |
| Cn1nc(C(F)(F)F)cc1C(=O)NC1CCCCCC1 | > 35 µM (inactive) |
| O=C(CCN1C(=O)S/C(=C\c2ccc(F)cc2)C1=O)Nc1ccc(C(=O)O)c(O)c1 | > 35 µM (inactive) |
| COc1ccc(N2CCN(c3ccc(N4C(=O)CC(C)C4=O)cc3[N+](=O)[O-])CC2)cc1 (configuration not stated) | > 35 µM (inactive) |
| CCC1CCCCN1Cc1c(O)ccc2c(=O)c(-c3ccccc3OC)coc12 (configuration not stated) | > 35 µM (inactive) |
| COc1ccc(C(=O)/C=C/C(=O)N(CC(=O)NC2CCCCC2)CC2CCCO2)c(O)c1 (configuration not stated) | > 35 µM (inactive) |
| CC12CC3(C)CC(C)(C1)CC(C(=O)NCCc1ccc(S(N)(=O)=O)cc1)(C2)C3 | > 35 µM (inactive) |
| O=C(N/N=C/c1cc(Cl)cc(Cl)c1O)c1ccncc1 | > 35 µM (inactive) |
| O=C(Nc1ncc2c(n1)CC(c1ccco1)CC2=O)c1ccccc1 (configuration not stated) | > 35 µM (inactive) |

| Structure (SMILES) | EC50 |
| --- | --- |
| COc1ccccc1OCC(=O)N/N=C/c1c(O)ccc2ccccc12 | 6.2 µM |
| Cc1cccc(N2CCN(c3ccc(N4C(=O)CCCC4=O)cc3[N+](=O)[O-])CC2C)c1 (configuration not stated) | > 35 µM (inactive) |
| COc1cccc(/C=N/Nc2nccnc2Cl)c1O | 6.36 µM |
| COc1ccc(CN2CCNC(=O)C2CC(=O)NC2CCCC2)c(OC)c1 (configuration not stated) | > 35 µM (inactive) |
| CC1SC(=NC(=O)c2ccncc2)NC1=O (configuration not stated) | > 35 µM (inactive) |
| Cc1ccc(C)c(OCC(=O)O/N=C(\N)c2cccc([N+](=O)[O-])c2)c1 | > 35 µM (inactive) |
| Cc1ccc(CNc2ccc3c(c2)nc(C)n3C)cc1 | > 35 µM (inactive) |
| Cc1ccc(C(=O)NC(=S)NNS(=O)(=O)c2ccc(C)cc2)cc1 | > 35 µM (inactive) |
| O=C(N/N=C/c1cc(Br)ccc1O)c1cccc(N2CCCC2=O)c1 | 13.5 µM |
| CC(=O)Nc1ccc(S(=O)(=O)Nc2ccc(S(=O)(=O)Nc3nccs3)cc2)cc1 | > 35 µM (inactive) |
| O=C(CCCOc1ccc(Cl)cc1Cl)N/N=C/c1ccccc1O | 7.41 µM |
| COc1ccc(C(=O)NCCCOC(=O)c2ccc(OC)cc2)cc1 | > 35 µM (inactive) |
| CS(=O)(=O)n1nc(-c2ccccc2)nc1NCc1ccco1 | > 35 µM (inactive) |
| COc1ccc(N/C=C\C(=O)c2ccc3c(c2)OCO3)cc1 | > 35 µM (inactive) |
| Cc1noc(C(=O)Nc2sc3c(c2C#N)CCC3)c1Cl | > 35 µM (inactive) |
| CC(NC(=O)c1cc2c(s1)CS(=O)(=O)C2)c1ccccc1 (configuration not stated) | > 35 µM (inactive) |
| C[C@@H](C(=O)Nc1ccc2c(c1)OCCO2)n1c(=O)[nH]c2ccccc2c1=O | > 35 µM (inactive) |
| CN(CC(=O)Nc1ccc(F)c(F)c1F)C(=O)/C=C/c1ccc(Cl)cc1 | > 35 µM (inactive) |
| Cc1ccccc1N=Nc1ccc(O)c2ncccc12 | 5.04 µM |
| O=C(Nc1ccc(Cl)cc1)NN1CC(=O)N(c2cccc(C(F)(F)F)c2)CC1=O | > 35 µM (inactive) |
| CCOc1cc(N2CCOCC2)c(OCC)cc1NC(C)C(=O)N1CCC(C)CC1 (configuration not stated) | > 35 µM (inactive) |
| Cc1ccc(Cl)cc1N1CCN(CC(O)COCc2ccco2)CC1 (configuration not stated) | > 35 µM (inactive) |
| CCNc1nc(Cl)nc(NNC(=O)C(C)Oc2ccccc2)n1 (configuration not stated) | > 35 µM (inactive) |
| CC(=O)c1cccc(NC(=O)CN(C)S(=O)(=O)c2cccc3nsnc23)c1 | > 35 µM (inactive) |
| COC(=O)c1ccc(CSc2nc3c(c(=O)n2-c2ccc(F)cc2)SCC3)o1 | > 35 µM (inactive) |
| O=C1CC(Nc2ccccc2)C(=O)N1Cc1ccccc1 (configuration not stated) | > 35 µM (inactive) |

| Structure (SMILES) | EC50 |
| --- | --- |
| c1ccc(CSc2nnc(-c3ccco3)o2)cc1 | > 35 µM (inactive) |
| O=C(CSc1nnc(-c2ccncc2)o1)N1CCCCCC1 | > 35 µM (inactive) |
| O=C(CCc1ccccc1)Nc1ccnn1C1CCN(C/C=C/c2ccccc2)CC1 | > 35 µM (inactive) |
| S=C(N/N=C/c1cccc2ccccc12)Nc1cccc(Cl)c1 | 31.9 µM |
| COc1ccccc1-c1cc(C(F)(F)F)nc(S(=O)(=O)CCCC(=O)N2CCCCC2C)n1 (configuration not stated) | > 35 µM (inactive) |
| CCN(CC)c1ccc(/C=N/NC(=O)c2ccc3nc[nH]c3c2)c(O)c1 | 10.5 µM |
| COc1ccc2cc(C(C)C(=O)N3CCC(C(N)=O)CC3)ccc2c1 (configuration not stated) | > 35 µM (inactive) |
| COc1cc(OC)c2nc(C)c3c(c2c1)N(c1ccc(O)cc1)CC3 | > 35 µM (inactive) |
| Cc1ccc(Nc2c3c(nc4ccccc24)CCC3)cc1 | > 35 µM (inactive) |
| C/C(=C\C(=O)OCC(=O)NCc1ccccc1)C(=O)OCC(=O)NCc1ccccc1 | > 35 µM (inactive) |
| CCOC(=O)CNC(=O)CSc1nnc(Cn2cnc3ccccc32)n1C | > 35 µM (inactive) |
| Oc1c(CN2CCCCC2)cc(COCc2ccccc2)c2cccnc12 | 11.9 µM |
| CCn1nc(C(=O)OCC(=O)NC(C)C)c2ccccc2c1=O | > 35 µM (inactive) |
| C/C(=N\NC(=O)c1nnn(-c2nonc2N)c1-c1ccccc1)c1ccccc1O | 11.1 µM |
| COc1ccc(NC(=O)C2CCN(S(=O)(=O)c3ccc4c(c3)CC(C)N4C(C)=O)CC2)cc1OC (configuration not stated) | > 35 µM (inactive) |
| CCN(CC)CCOc1ccc2c(c1)C(=NO)c1cc(OCCN(CC)CC)ccc1-2 | > 35 µM (inactive) |
| Cc1ccc(NC(=O)CSc2ncc3ccccn23)cc1 | > 35 µM (inactive) |
| Cc1cccc(C)c1Nc1c(-c2ccccn2)nc2ccccn12 | 3.28 µM |
| CN(c1cccc(Cl)c1)S(=O)(=O)c1cccc(C(=O)Nc2nc3ccccc3[nH]2)c1 | > 35 µM (inactive) |
| COC(CN(C(=O)CCl)C(C(=O)NC1CCCCC1)c1ccc(Cl)cc1)OC (configuration not stated) | 19 µM |
| CC(Sc1nnc(COc2ccc([N+](=O)[O-])cc2)n1C)C(=O)O (configuration not stated) | > 35 µM (inactive) |
| CN(C)S(=O)(=O)c1cccc(NC(=S)N/N=C/c2cc(Br)ccc2O)c1 | 12.7 µM |
| Cn1c(CO)nc2c3ccccc3ccc21 | > 35 µM (inactive) |
| CCOC(=O)c1sc(=S)n(-c2ccccc2)c1C | > 35 µM (inactive) |
| Cc1ccc(-c2nnn(CC(=O)N(Cc3cccs3)C(C(=O)NC3CCCCC3)c3ccco3)n2)o1 (configuration not stated) | 33.4 µM |
| COc1ccc(-c2csc(NNC3=NCCCCC3)n2)cc1 | 30.1 µM |

| Structure (SMILES) | EC50 |
| --- | --- |
| COc1ccc(CC(NC(C)=O)C(=O)NC2CCN(C(=O)c3cccc(Cl)c3)CC2)cc1OC (configuration not stated) | > 35 µM (inactive) |
| CN(CC(=O)Nc1ccccc1Oc1ccccc1)Cc1ccccc1F | > 35 µM (inactive) |
| Cc1cc(S(=O)(=O)ON2C(=O)c3ccccc3C2=O)ccc1F | 6.21 µM |
| O=C(CCc1ccccc1)N/N=C/c1cc(Br)ccc1O | 13.2 µM |
| O=[N+]([O-])c1ccc(O)c(/C=N/Nc2ccccn2)c1 | 6.39 µM |
| CCOc1ccc(C(=O)NC(=S)Nc2cccc(NC(=O)c3ccco3)c2)cc1[N+](=O)[O-] | > 35 µM (inactive) |
| COc1ccc(CC(NC(C)=O)C(=O)NC2CCN(C(=O)Nc3ccc(Cl)cc3)CC2)cc1OC (configuration not stated) | > 35 µM (inactive) |
| CN(C)c1ccc(S(=O)(=O)NCC(=O)OCC(=O)Nc2cc(Cl)cc(Cl)c2)cc1[N+](=O)[O-] | > 35 µM (inactive) |
| CCN(CC)c1ccc(/C=N/NC(=O)c2ccoc2C)c(O)c1 | 10.9 µM |
| CCOC(=O)c1c(NC(=O)CN2C(=O)NC3(CCC(C)CC3)C2=O)sc(C)c1-c1ccc(C)cc1 (configuration not stated) | 7.59 µM |
| COc1ccc(C(NC(=O)c2cccnc2)c2cc(Cl)c3cccnc3c2O)cc1OC (configuration not stated) | 7.09 µM |
| Cc1occc1C(=O)NC1CCCCCC1 | > 35 µM (inactive) |
| Cc1ccn2c(Nc3ccccc3C)c(-c3ccccn3)nc2c1 | 6.66 µM |
| Cc1cc(C)cc(N(CC(=O)Nc2ccccc2C(=O)N2CCOCC2)S(C)(=O)=O)c1 | > 35 µM (inactive) |
| O=C(N/N=C/c1c(O)ccc2ccccc12)c1ccc(CO)nc1 | 6.6 µM |
| Cc1cc(C)[n+](Cc2ccccc2)cc1C(N)=O | > 35 µM (inactive) |
| CCCNC(=O)c1cc(-c2ccco2)on1 | 5.66 µM |
| Cc1ccc(CNC(=O)NC2CCCCC2)cc1 | > 35 µM (inactive) |
| O=[N+]([O-])c1cc(S(=O)(=O)c2ccc(O)c([N+](=O)[O-])c2)ccc1O | > 35 µM (inactive) |
| O=C(O)c1cccnc1SCc1ccccc1Cl | > 35 µM (inactive) |
| COc1ccc(N/N=C(/N=Nc2nc(C)cc(=O)[nH]2)c2ccccc2)cc1 | 0.856 µM |
| COc1ccc2nc(-c3cccc(N)c3)[nH]c2c1 | > 35 µM (inactive) |
| C/C(=N\O)C(=O)Nc1ccccc1 | > 35 µM (inactive) |
| CCCn1c(SCC(=O)Nc2ccccc2CC)nnc1C(C)C | > 35 µM (inactive) |
